Test results from PubChem BioAssay (NCI).
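Compound exposure: 48 hours, 5 concentrations, 96-well plates. At the GI50, growth is halved. TGI: concentration producing complete growth inhibition.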

Legend:
Assay in all cases: NCI tumour cell line growth inhibition, 48 h
SNB-75 CNS = tested on: SNB-75 CNS
SF-539 CNS = tested on: SF-539 CNS
DU-145 prostate = tested on: DU-145 prostate
KM12 colon = tested on: KM12 colon
NCI-H23 lung = tested on: NCI-H23 lung
TK-10 renal = tested on: TK-10 renal
HCT-116 colon = tested on: HCT-116 colon
HOP-92 NSCLC = tested on: HOP-92 NSCLC
SNB-19 CNS = tested on: SNB-19 CNS
MOLT-4 leukemia = tested on: MOLT-4 leukemia
OVCAR-3 ovarian = tested on: OVCAR-3 ovarian
NCI-H522 lung = tested on: NCI-H522 lung
A549 NSCLC = tested on: A549 NSCLC
HT29 colon = tested on: HT29 colon
HS 578T breast = tested on: HS 578T breast
SN12C renal = tested on: SN12C renal
SF-268 CNS = tested on: SF-268 CNS
RXF 393 renal = tested on: RXF 393 renal
NCI-H226 lung = tested on: NCI-H226 lung
SK-MEL-5 melanoma = tested on: SK-MEL-5 melanoma
MDA-MB-435 = tested on: MDA-MB-435
HL-60(TB) leukemia = tested on: HL-60(TB) leukemia
SK-OV-3 ovarian = tested on: SK-OV-3 ovarian
U251 CNS = tested on: U251 CNS
COLO 205 colon = tested on: COLO 205 colon
K-562 leukemia = tested on: K-562 leukemia
UO-31 renal = tested on: UO-31 renal
RPMI-8226 leukemia = tested on: RPMI-8226 leukemia
PC-3 prostate = tested on: PC-3 prostate
MCF7 breast = tested on: MCF7 breast
OVCAR-8 ovarian = tested on: OVCAR-8 ovarian
EKVX NSCLC = tested on: EKVX NSCLC
NCI/ADR-RES ovarian = tested on: NCI/ADR-RES ovarian
MDA-MB-231 breast = tested on: MDA-MB-231 breast
T-47D breast = tested on: T-47D breast
A498 renal = tested on: A498 renal
SF-295 CNS = tested on: SF-295 CNS
MALME-3M melanoma = tested on: MALME-3M melanoma
SR leukemia = tested on: SR leukemia
UACC-62 melanoma = tested on: UACC-62 melanoma
HCC-2998 colon = tested on: HCC-2998 colon
SK-MEL-28 melanoma = tested on: SK-MEL-28 melanoma
UACC-257 melanoma = tested on: UACC-257 melanoma
CAKI-1 renal = tested on: CAKI-1 renal
SK-MEL-2 melanoma = tested on: SK-MEL-2 melanoma
786-0 renal = tested on: 786-0 renal
ACHN renal = tested on: ACHN renal
M14 melanoma = tested on: M14 melanoma
OVCAR-4 ovarian = tested on: OVCAR-4 ovarian
HOP-62 NSCLC = tested on: HOP-62 NSCLC
NCI-H460 lung = tested on: NCI-H460 lung
IGROV1 ovarian = tested on: IGROV1 ovarian
HCT-15 colon = tested on: HCT-15 colon
OVCAR-5 ovarian = tested on: OVCAR-5 ovarian
SW-620 colon = tested on: SW-620 colon
CCRF-CEM leukemia = tested on: CCRF-CEM leukemia
LOX IMVI melanoma = tested on: LOX IMVI melanoma
BT-549 breast = tested on: BT-549 breast

COC12C=CC(CC1)C(C)(C)C2O (stereo unspecified)
TGI (SNB-75 CNS): > 100 µM

Cc1ccc(C(=O)/C=C/N2CCN(c3cccc(C(F)(F)F)c3)CC2)cc1
TGI (SF-539 CNS): 31.5 µM | TGI (DU-145 prostate): 38 µM | TGI (KM12 colon): 38.1 µM | TGI (NCI-H23 lung): 31 µM | TGI (TK-10 renal): 56.8 µM | TGI (HCT-116 colon): 30.6 µM | TGI (HOP-92 NSCLC): > 100 µM | TGI (SNB-19 CNS): > 100 µM | TGI (MOLT-4 leukemia): 48.2 µM | TGI (OVCAR-3 ovarian): 28.5 µM | TGI (NCI-H522 lung): 35.4 µM | TGI (A549 NSCLC): 53.6 µM | TGI (HT29 colon): 35.8 µM | TGI (HS 578T breast): 51.4 µM | TGI (SN12C renal): 36.3 µM | TGI (SF-268 CNS): 36.8 µM | TGI (RXF 393 renal): 33.1 µM | TGI (NCI-H226 lung): 38.9 µM | TGI (SK-MEL-5 melanoma): 29.2 µM | TGI (MDA-MB-435): 32.4 µM | TGI (HL-60(TB) leukemia): 60.2 µM | TGI (SK-OV-3 ovarian): 95.5 µM | TGI (U251 CNS): 31.4 µM | TGI (COLO 205 colon): 72 µM | TGI (K-562 leukemia): 49.1 µM | TGI (UO-31 renal): 36.7 µM | TGI (RPMI-8226 leukemia): > 100 µM | TGI (PC-3 prostate): > 100 µM | TGI (MCF7 breast): 34 µM | TGI (OVCAR-8 ovarian): 38.9 µM | TGI (EKVX NSCLC): 41.8 µM | TGI (NCI/ADR-RES ovarian): 33 µM | TGI (MDA-MB-231 breast): 33.4 µM | TGI (T-47D breast): 76.5 µM | TGI (A498 renal): 33.3 µM | TGI (SF-295 CNS): 34 µM | TGI (SNB-75 CNS): 34.7 µM | TGI (MALME-3M melanoma): 38.1 µM | TGI (SR leukemia): 40.3 µM | TGI (UACC-62 melanoma): 34.8 µM | TGI (HCC-2998 colon): 25.5 µM | TGI (SK-MEL-28 melanoma): 38.4 µM | TGI (UACC-257 melanoma): 32.5 µM | TGI (CAKI-1 renal): 37 µM | TGI (SK-MEL-2 melanoma): 34.8 µM | TGI (786-0 renal): 34 µM | TGI (ACHN renal): 60.5 µM | TGI (M14 melanoma): 30.5 µM | TGI (OVCAR-4 ovarian): > 100 µM | TGI (HOP-62 NSCLC): 37.4 µM | TGI (NCI-H460 lung): 47.8 µM | TGI (IGROV1 ovarian): 31.4 µM | TGI (HCT-15 colon): 29.5 µM | TGI (OVCAR-5 ovarian): 39.1 µM | TGI (SW-620 colon): 49.8 µM

CC1(C)CC(=O)C2=C(C1)N(c1ccccc1)C1(O)C=CC(=O)C3=C(O)c4ccccc4C(=O)C321 (stereo unspecified)
TGI (SF-539 CNS): 70.6 µM | TGI (DU-145 prostate): > 100 µM | TGI (KM12 colon): 86.3 µM | TGI (NCI-H23 lung): 84 µM | TGI (TK-10 renal): 52.2 µM | TGI (HCT-116 colon): > 100 µM | TGI (HOP-92 NSCLC): 58.5 µM | TGI (SNB-19 CNS): 54.5 µM | TGI (MOLT-4 leukemia): > 100 µM | TGI (OVCAR-3 ovarian): > 100 µM | TGI (NCI-H522 lung): 45.8 µM | TGI (A549 NSCLC): > 100 µM | TGI (CCRF-CEM leukemia): > 100 µM | TGI (HT29 colon): 54 µM | TGI (LOX IMVI melanoma): 56.3 µM | TGI (SN12C renal): > 100 µM | TGI (SF-268 CNS): 52.1 µM | TGI (RXF 393 renal): 39.6 µM | TGI (NCI-H226 lung): 42.4 µM | TGI (MDA-MB-435): 54 µM | TGI (HL-60(TB) leukemia): > 100 µM | TGI (SK-OV-3 ovarian): > 100 µM | TGI (U251 CNS): > 100 µM | TGI (BT-549 breast): 67.9 µM | TGI (COLO 205 colon): > 100 µM | TGI (K-562 leukemia): > 100 µM | TGI (UO-31 renal): 47 µM | TGI (RPMI-8226 leukemia): > 100 µM | TGI (PC-3 prostate): 63.5 µM | TGI (MCF7 breast): > 100 µM | TGI (OVCAR-8 ovarian): > 100 µM | TGI (EKVX NSCLC): > 100 µM | TGI (NCI/ADR-RES ovarian): > 100 µM | TGI (MDA-MB-231 breast): > 100 µM | TGI (T-47D breast): > 100 µM | TGI (SF-295 CNS): > 100 µM | TGI (SNB-75 CNS): 48.6 µM | TGI (MALME-3M melanoma): 66.8 µM | TGI (SR leukemia): 56.4 µM | TGI (UACC-62 melanoma): 63.5 µM | TGI (HCC-2998 colon): 78.2 µM | TGI (SK-MEL-28 melanoma): 39.3 µM | TGI (UACC-257 melanoma): > 100 µM | TGI (CAKI-1 renal): 86 µM | TGI (SK-MEL-2 melanoma): 60.9 µM | TGI (786-0 renal): > 100 µM | TGI (ACHN renal): 46.2 µM | TGI (M14 melanoma): > 100 µM | TGI (OVCAR-4 ovarian): 43.9 µM | TGI (HOP-62 NSCLC): > 100 µM | TGI (NCI-H460 lung): 83.9 µM | TGI (IGROV1 ovarian): 75.5 µM | TGI (HCT-15 colon): > 100 µM | TGI (OVCAR-5 ovarian): > 100 µM

O=C1/C(=C\c2cn(CC(O)CN3CCCCC3)c3ccccc23)c2ccccc2N1c1c(Cl)cccc1Cl (stereo unspecified)
GI50 (SF-539 CNS): 1.68 µM | TGI (SF-539 CNS): 3.18 µM | GI50 (DU-145 prostate): 1.88 µM | TGI (DU-145 prostate): 3.32 µM | GI50 (KM12 colon): 1.89 µM | TGI (KM12 colon): 3.37 µM | GI50 (TK-10 renal): 1.82 µM | TGI (TK-10 renal): 3.29 µM | GI50 (HOP-92 NSCLC): 1.59 µM | TGI (HOP-92 NSCLC): 3.2 µM | GI50 (HS 578T breast): 2.27 µM | TGI (HS 578T breast): 5.78 µM | GI50 (SK-OV-3 ovarian): 1.63 µM | TGI (SK-OV-3 ovarian): 3.13 µM | GI50 (BT-549 breast): 1.71 µM | TGI (BT-549 breast): 3.18 µM | GI50 (PC-3 prostate): 1.41 µM | TGI (PC-3 prostate): 2.81 µM | GI50 (MDA-MB-231 breast): 1.79 µM | TGI (MDA-MB-231 breast): 3.21 µM | GI50 (A498 renal): 1.7 µM | TGI (A498 renal): 3.24 µM | GI50 (SF-295 CNS): 1.8 µM | TGI (SF-295 CNS): 3.3 µM | GI50 (SNB-75 CNS): 1.3 µM | TGI (SNB-75 CNS): 2.63 µM | GI50 (UACC-62 melanoma): 1.76 µM | TGI (UACC-62 melanoma): 3.2 µM | GI50 (HCC-2998 colon): 1.73 µM | TGI (HCC-2998 colon): 3.16 µM | GI50 (M14 melanoma): 1.66 µM | TGI (M14 melanoma): 3.1 µM | GI50 (OVCAR-5 ovarian): 1.57 µM | TGI (OVCAR-5 ovarian): 2.92 µM

O=C(Nc1ccc([N+](=O)[O-])cc1)c1ccc([N+](=O)[O-])cc1
TGI (SF-295 CNS): > 100 µM | TGI (SNB-75 CNS): > 100 µM
